Data reported in patent publication US10822367B2, “Pharmaceutical composition for preventing or treating dementia and improving cognitive function, comprising glasswort extract” (priority 2017, dated 2020).
≈ marks a conversion by molar mass, not a printed value.

What was measured:
[1] = test system: forgetfulness animal models using scopolamine; assay: Y-maze test; type: in vivo
Procedure: A test was conducted to investigate the improvement efficacy of cognitive ability and memory of the desalted Salicornia europaea extract (PM-EE) obtained in example 4-1 above and acanthoside B as an AChE inhibitory and neuroinflammation inhibiting substance isolated from PM-EE in examples 4-2 and 4-3. The Y-maze test was conducted in forgetfulness animal models using scopolamine. In the present test, PM-EE and acanthoside B were dissolved in 10% Tween 80, and then the mixture was orally administered at different concentrations (PM-EE and acanthoside B). […] For the Y-maze test, a test animal was carefully placed in a test apparatus composed of three arms (A, B, C) of a black polyvinyl plastic, each of the arms being 50 cm in length, 10 cm in width, and 20 cm in height, and the folding angle of the three arms being 120 degrees, and the test animal was allowed to freely move for 8 minutes, and then the number of arm entries was recorded. If the test animal sequentially entered the three different arms, 1 point (actual alternation) was given. The alternation behavior was calculated by the following formula. Alternation behavior=(actual alternation)/(maximum alternation)×100 (maximum alternation: the total number of arm entries−2)

[2] = biological target: acetylcholine esterase (AChE) (Homo sapiens, UniProt P22303); assay: Acetylcholine esterase inhibitory activity (partially corrected Ellman's coupled enzyme assay); type: biochemical
acetylcholine esterase (AChE), sequence (P22303 32-614): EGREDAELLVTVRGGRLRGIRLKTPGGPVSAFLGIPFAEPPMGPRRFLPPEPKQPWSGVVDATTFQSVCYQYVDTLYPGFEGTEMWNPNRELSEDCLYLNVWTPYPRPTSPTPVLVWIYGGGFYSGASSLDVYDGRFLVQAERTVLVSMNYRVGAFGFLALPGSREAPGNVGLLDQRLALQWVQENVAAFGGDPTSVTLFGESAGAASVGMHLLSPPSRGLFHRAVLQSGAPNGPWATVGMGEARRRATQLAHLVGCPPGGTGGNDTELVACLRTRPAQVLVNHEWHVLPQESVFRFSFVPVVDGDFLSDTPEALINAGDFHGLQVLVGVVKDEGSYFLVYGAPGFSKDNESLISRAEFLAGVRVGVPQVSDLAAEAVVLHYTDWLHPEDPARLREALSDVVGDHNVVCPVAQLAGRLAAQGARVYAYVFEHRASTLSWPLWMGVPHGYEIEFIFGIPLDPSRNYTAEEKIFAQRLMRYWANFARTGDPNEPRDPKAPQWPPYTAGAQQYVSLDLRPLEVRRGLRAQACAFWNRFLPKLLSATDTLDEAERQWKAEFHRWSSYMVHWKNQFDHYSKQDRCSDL
Text: It has been reported that as the concentration of acetylcholine esterase (AChE) increases in the cerebral blood vessels, cholinergic neurotransmitters for neurons are deficient in neurons, causing memory and cognitive impairment. Therefore, the measurement of AChE inhibitory activity can be used as a tool for the development of a drug or health functional raw material for prevention and treatment of dementia or enhancement of cognitive ability. In the present invention, the AChE inhibitory activity of a desalted Salicornia europaea extract, a desalted Salicornia europaea enzymatic hydrolysis extract, or purified fractions obtained from a desalted Salicornia europaea extract were measured, and the measurement was conducted by partially correcting Ellman's coupled enzyme assay. That is, 170 μL of 100 mM phosphate buffer (pH 8), […] of 2 mM dithiobisnitrobenzoic acid (DTNB), and 20 μL of an extraction sample were added to on a 96-well microplate. […] The enzymatic reaction solution was incubated at 37° C. for 10 minutes, and then the absorbance was measured by a UV-VIS microreader at 410 nm. The AChE inhibitory activity was calculated as below by comparison between the absorbance (Ac) of a control group not containing a substrate and a sample and the absorbance (As) of a test group. *AChE inhibitory activity (%)=[1−(As/Ac)]×100 • Ac: absorbance of a control group, • As: absorbance of a sample group.

BV2 microglia = assay: Cytotoxicity test through MTT assay in LPS-stimulated BV2 microglia; details: acanthoside B 1, 5, 10 μg/mL, alone or together with LPS (FIG. 10a)
Procedure: (§1) A test was conducted to investigate effects of the neuroinflammation inducing substance LPS (200 mg/mL) and the active ingredient acanthoside B of PM-EE on brain glia cells in LPS-stimulated brain glia cells BV2 microglia. The cells were treated with each material at different concentrations (1, 5, 10 μg/mL), and a cytotoxicity test was conducted through MTT analysis. […] Therefore, in order to analyze the neuroinflammation inhibitory ability of acanthoside B at concentrations (1, 5, 100 μg/mL) without cytotoxicity, as for whether the nitric oxide (NO) produced in LPS (200 ng/ml)-stimulated mouse BV-2 microglia was inhibited by acanthoside B, the content of intracellular LPS-induced nitric oxide (NO) was measured through NO assay using Griess reagent.

[3] = test system: LPS-stimulated mouse BV-2 microglia; assay: LPS-induced nitric oxide (NO) production, NO assay using Griess reagent; type: cell-based; details: 1, 5, 100 μg/mL as printed; LPS 200 ng/ml (FIG. 10b)
Procedure: as §1

[4] = test system: neuroinflammation-related genes (IL-1β, iNOS, COX-2, and TNF-α) in BV2 microglia; assay: Neuroinflammation gene expression by RT-PCR; type: cell-based, mouse
Procedure: BV2 microglia as neuroglia were treated with LPS and the desalted Salicornia europaea extract (PM-EE) at different concentrations (0-100 μg/mL). After 1 hour, cells were stimulated by LPS, and after 3 hours, an RNA sample was isolated by an RNA extraction buffer. Thereafter, RT-PCR assay was conducted through RNA purification procedure. […] RNA isolated from BV2 microglia was subjected to denaturation at 95° C. for […], 45 times of chain reactions in conditions of 95° C. for 5 seconds and 60° C. for 20 seconds, and annealing to 95° C. at 0.2° C./15 sec, using the primers in Table 4, and then the reaction was stopped. Last, separation by bp size was conducted through agarose gel electrophoresis. Then, bands were checked under UV, and fluorescence was imaged by a camera. As shown in the results in FIG. 9, the expressions of neuroinflammation-related genes (IL-1β, iNOS, COX-2, and TNF-α) were not or slightly observed in a control group treated without LPS.
A test was conducted to investigate an effect of acanthoside B on neuroinflammation factor gene expression. […] After 3 hours, RNA sample was separated by RNA extraction buffer to synthesize cDNA, and RT-PCR was conducted by the same method as in example 6 using the primers in Table 4. […]

[5] = Solubility (physical and chemical properties); type: physicochemical
Text: As a result of the measurement above, the compound S7-L3-3 was identified to be acanthoside B ((2S,3R,4S,5S,6R)-2-[4-[(3S,3aR,6S,6aR)-3-(4-hydroxy-3,5-dimethoxyphenyl)-1,3,3a,4,6,6a-hexahydrofuro [3,4-c]furan-6-yl]-2,6-dimethoxyphenoxy]-6-(hydroxymethyl)oxane-3,4,5-triol) having a molecular weight of 580, which has not been reported in Salicornia europaea until now, and the physical and chemical properties thereof are as follows.

[6] = test system: iNOS and COX-2 protein in LPS-stimulated BV2 microglia; assay: Neuroinflammation factor protein expression by western blotting; type: cell-based, mouse; details: acanthoside B; LPS-induced (FIG. 10c)
Procedure: as §1

[7] = test system: forgetfulness animal models using scopolamine; assay: Passive avoidance test; type: in vivo, mice
Procedure: Mice were placed in the bright section with shining light and allowed to go over for 20 seconds. Subsequently, the guillotine door was opened and the mouse was allowed to enter into the dark section. […] The time from when the guillotine door was opened to when the mouse entered the dark section was measured. Once the mouse entered the dark section, the guillotine door was closed, and an electric shock of 0.25 mA flows through a grid bottom for 3 seconds, and the mouse remembered this electrical action. The present test was conducted 24 hours after the learning test. […] Here, the longer the time taken, the better the cognitive ability and memory in passive avoidance.

CN1[C@@H]2C[C@@H](OC(=O)[C@H](CO)c3ccccc3)C[C@H]1[C@@H]1O[C@@H]12 [scopolamine, reference compound]
Alternation behavior after administration of scopolamine ([1]; normal control group scored 50 points): 45.5 points

COc1cc([C@H]2OC[C@@H]3[C@@H]2CO[C@H]3c2cc(OC)c(O[C@@H]3O[C@H](CO)[C@@H](O)[C@H](O)[C@H]3O)c(OC)c2)cc(OC)c1O[C@@H]1O[C@H](CO)[C@@H](O)[C@H](O)[C@H]1O [Elutheroside E, eleutheroside E, reference compound]
IC50 (AChE inhibitory activity) [2]: 8.2 ± 0.37 µg/mL (≈ 11 µM)

COc1cc([C@H]2OC[C@H]3[C@@H]2CO[C@@H]3c2cc(OC)c(O[C@@H]3O[C@H](CO)[C@@H](O)[C@H](O)[C@H]3O)c(OC)c2)cc(OC)c1O [acanthoside B, (2S,3R,4S,5S,6R)-2-[4-[(3S,3aR,6S,6aR)-3-(4-hydroxy-3,5-dimethoxyphenyl)-1,3,3a,4,6,6a-hexahydrofuro [3,4-c]furan-6-yl]-2,6-dimethoxyphenoxy]-6-(hydroxymethyl)oxane-3,4,5-triol]
Cell viability (MTT) (BV2 microglia): not significantly changed
LPS-induced amplified intracellular nitric oxide (NO) [3]: remarkably decreased dependently on the treatment concentration
LPS-induced amplified neuroinflammation-related genes (IL-1β, iNOS, COX-2, TNF-α) at high concentration ([4]; 10 μg/mL (FIG. 11)): restored to almost the same level as that of a control group before LPS induction
mRNA expression pattern of IL-1β, iNOS, COX-2, and TNF-α (RT-PCR) ([4]; 1, 5, 10 μg/mL, LPS-stimulated (FIG. 11)): reduced dose-dependently
IC50 ([2]; IC50 (AChE inhibitory activity)): 4.82 µM
inhibition at 10 µg/mL ([2]; read-out: AChE inhibitory activity): 93.2%
Solubility [5]: soluble in methanol, ethanol, ethyl acetate, ethyl acetate, chloroform, or pyridine
Cognitive ability and memory improvement compared with galantamine (Y-maze) ([1]; galantamine 10 mg/kg as positive control): superior cognitive ability and memory improvement effects to galantamine
Alternation behavior (spatial cognitive ability) ([1]; orally administered at different concentrations in 10% Tween 80, scopolamine model (FIG. 13a, 13b)): restored dose-dependently
Expressions of iNOS and COX-2 protein (western blotting) [6]: remarkably inhibited
Cognitive ability and memory improvement compared with galantamine (passive avoidance) ([7]; administration at high concentrations): more superior cognitive ability and memory improvement effects compared with the dementia drug, galantamine
Transfer latency time (TLT: retention time) ([7]; scopolamine 1 mg/kg intraperitoneally, different concentrations of sample (FIG. 12a, 12b)): significantly increased
